Patent US4347242A, “Hypocalcaemic peptides and process for their manufacture” (Ciba-Geigy Corporation, priority 1978, dated 1982)
Where “and” joins values, the source holds several entries; their conditions need not be identical. Equal entries are not always repeated.

Tests used:
rat = rat hypocalcaemic activity test described by Kumar et al, J. Endocrinology 33, page 470 [1965] (MRC units); assay type: in vivo; conditions: per mg of peptide or product
[1] = tested on: patients with increased bone turn over; assay: lowering of blood calcium level in patients with increased bone turn over; assay type: in vivo, human; conditions: intravenous, intramuscular or subcutaneous injection of 0.01 to 5 mg, e.g. in 0.1 molar acetate buffer pH 4.6
rats = assay: lowering of plasma calcium and plasma phosphate level in tests on rats weighing 50 to 150 g; assay type: in vivo, rat

Compound | activity in the rat (rat) | calcium level of the blood [1] | plasma calcium level (rats) | plasma phosphate level (rats)
CC[C@H](C)[C@H](NC(=O)[C@H](C)NC(=O)[C@@H](NC(=O)[C@H](CCC(N)=O)NC(=O)[C@@H]1CCCN1C(=O)[C@H](Cc1ccccc1)NC(=O)[C@@H](NC(=O)[C@H](Cc1c[nH]cn1)NC(=O)[C@H](Cc1ccccc1)NC(=O)[C@H](CCCCN)NC(=O)[C@H](CC(N)=O)NC(=O)[C@H](Cc1ccccc1)NC(=O)[C@H](CC(=O)O)NC(=O)[C@H](CCC(N)=O)NC(=O)[C@@H](NC(=O)[C@H](Cc1ccc(O)cc1)NC(=O)[C@@H](NC(=O)CNC(=O)[C@H](CC(C)C)NC(=O)[C@H](CCSC)NC(=O)[C@@H]1CSSC[C@H](N)C(=O)NCC(=O)N[C@@H](CC(N)=O)C(=O)N[C@@H](CC(C)C)C(=O)N[C@@H](CO)C(=O)N[C@@H]([C@@H](C)O)C(=O)N1)[C@@H](C)O)[C@@H](C)O)[C@@H](C)O)[C@@H](C)O)C(=O)NCC(=O)N[C@H](C(=O)NCC(=O)N[C@@H](C)C(=O)N1CCC[C@H]1C(N)=O)C(C)C [HT-C2] | 100 to 200 MRC units per mg and 100-200 MRC units per mg | – | – | –
Human calcitonin | – | lowers the calcium level of the blood | lowers | lowers
